Test results from ChEMBL document CHEMBL3232982, “Cytotoxic properties of D-gluco-, D-galacto- and D-manno-configured 2-amino-2-deoxy-glycerolipids against epithelial cancer cell lines and BT-474 breast cancer stem cells” (2014).
Active and inactive are the calls of the source. No cut-off for these calls is given here.

Legend:
[1] = Cytotoxicity against human MIAPaCa2 cells assessed as reduction cell viability after 48 hrs by MTS assay; assay type: functional; details: MIA PaCa-2, 48 h
[2] = Cytotoxicity against human JIMT1 cells assessed as reduction cell viability after 48 hrs by MTS assay; assay type: functional; details: JIMT-1, 48 h
[3] = system: BT-549; test: Cytotoxicity against human BT549 cells assessed as reduction cell viability after 48 hrs by MTS assay; assay type: functional; details: BT-549, 48 h
[4] = system: PC-3; test: Cytotoxicity against human PC3 cells assessed as reduction cell viability after 48 hrs by MTS assay; assay type: functional; details: PC-3, 48 h
[5] = system: BT-474; test: Cytotoxicity against human BT474 cells assessed as reduction cell viability after 48 hrs by MTS assay; assay type: functional; details: BT-474, 48 h
[6] = system: DU-145; test: Cytotoxicity against human DU145 cells assessed as reduction cell viability after 48 hrs by MTS assay; assay type: functional; details: DU-145, 48 h
[7] = system: BT-474; test: Cytotoxicity against tumorspheres of human BT474 cells assessed as disintegration of tumorspheres at 5 to 20 uM after 6 days by phase contrast microscopy relative to untreated control; assay type: functional, cell-based
[8] = system: BT-474; test: Cytotoxicity against human BT474 cells assessed as inhibition of cell viability at 10 to 20 uM after 6 days by MTS assay relative to untreated control; assay type: functional, cell-based
[9] = system: BT-474; test: Cytotoxicity against human BT474 cells assessed as inhibition of spheroids formation at 10 to 20 uM after 6 days by phase contrast microscopy relative to untreated control; assay type: functional, cell-based
[10] = system: BT-474; test: Cytotoxicity against tumorspheres of human BT474 cells assessed as inhibition of cell viability at 10 to 20 uM after 6 days by MTS assay relative to untreated control; assay type: functional, cell-based
[11] = system: BT-474; test: Cytotoxicity against tumorspheres of human BT474 cells assessed as inhibition of cell viability at 20 uM after 6 days by MTS assay relative to untreated control; assay type: functional; details: BT-474, 144 h
[12] = system: BT-474; test: Cytotoxicity against human BT474 cells assessed as cell viability at 20 uM after 6 days by MTS assay relative to untreated control; assay type: functional; details: BT-474, 144 h, read-out: Activity
[13] = system: BT-474; test: Cytotoxicity against human BT474 cells assessed as formation of spheroids with jagged rough edges at 10 to 20 uM after 6 days by phase contrast microscopy relative to untreated control; assay type: functional, cell-based
[14] = system: BT-474; test: Cytotoxicity against tumorspheres of human BT474 cells assessed as cell viability at 30 uM after 6 days by MTS assay relative to untreated control; assay type: functional; details: BT-474, 144 h, read-out: Activity

| SMILES | CC50 [1] | CC50 [2] | CC50 [3] | CC50 [4] | CC50 [5] | CC50 [6] | Activity [7] | inhibition [8] | inhibition [9] | inhibition [10] | inhibition at 20 µM [11] | viability at 20 µM [12] | Activity [13] | viability at 30 µM [14] |
| --- | --- | --- | --- | --- | --- | --- | --- | --- | --- | --- | --- | --- | --- | --- |
| CCCCCCCCCCCCCCCCOCC(CO[C@H]1O[C@H](CO)[C@@H](O)[C@H](O)[C@@H]1N)OC (some centres undefined) | > 30 µM | > 30 µM | > 30 µM | > 30 µM | > 30 µM | > 30 µM | – | – | – | – | – | – | – | – |
| CCCCCCCCCCCCCCCCOCC(CS[C@H]1O[C@H](CO)[C@H](O)[C@H](O)[C@H]1N)OC (some centres undefined) | 18.8 µM | 19.1 µM | 18.3 µM | 15 µM | 24.4 µM | 17.2 µM | – | – | – | – | – | – | – | – |
| CCCCCCCCCCCCCCN [TETRADECYLAMINE] | 18.2 µM | 24.8 µM | 21.7 µM | 24.6 µM | 27.1 µM | 16.8 µM | – | – | – | – | – | – | – | – |
| CCCCCCCCCCCCCCCCOCC(CO[C@H]1O[C@H](CO)[C@@H](O)[C@H](O)[C@H]1N)OC (some centres undefined) | 7 µM | 6 µM | 7 µM | 10.5 µM | 6.2 µM | 7 µM | Active | Active | Active | Active | – | – | – | – |
| CCCCCCCCCCCCCCCCOCC(CS[C@@H]1O[C@H](CO)[C@H](O)[C@H](O)[C@H]1N)OC (some centres undefined) | 20.2 µM | 15.5 µM | 22.2 µM | 24.3 µM | > 30 µM | 18.8 µM | – | – | – | – | – | – | – | – |
| CCCCCCCCCCCCCCCCOCC(CO[C@@H]1O[C@H](CO)[C@H](O)[C@H](O)[C@H]1N)OC (some centres undefined) | 25.8 µM | 24.8 µM | 27.6 µM | > 30 µM | > 30 µM | 19.5 µM | – | – | – | – | – | – | – | – |
| CCCCCCCCCCCCCCCCOCC(CO[C@@H]1O[C@H](CO)[C@@H](O)[C@H](O)[C@H]1N)OC (some centres undefined) | 10 µM | 9 µM | 13 µM | 13.5 µM | 8 µM | 10 µM | Active | Active | Active | – | – | – | – | – |
| CCCCCCCCCCCCCCCCOCC(CO[C@H]1O[C@H](CO)[C@H](O)[C@H](O)[C@H]1N)OC (some centres undefined) | 4.4 µM | 4.5 µM | 6.3 µM | 8 µM | 6.2 µM | 4.7 µM | Active | Active | Active | Active | – | – | – | – |
| CCCCCCCCCCCCCCCCCCOCC(COP(=O)([O-])OCC[N+](C)(C)C)OC (centres undefined) [EDELFOSINE] | – | – | – | – | – | – | inactive | – | – | – | 30% | 55% | Active | 45% |
